Measurements as given in US10335448B2, “Compositions and methods for inhibiting fibrosis” (The UAB Research Foundation, priority 2014, dated 2019).
Entries after “also recorded” stand apart in the source; their conditions may differ. Where a SMILES comes first, the peptide text is derived from it.

Legend:
[1] = tested on: bleomycin-induced lung fibrosis; assay: Bleomycin-induced pulmonary fibrosis in mice, peptide given intratracheally; settings: for lung fibrosis measured as lung hydroxyproline, second trial: 250 μg IT daily for two weeks starting day 7, n=6 (FIG. 6); for lung fibrosis on histology (H&E), second trial: 250 μg per day IT for 2 weeks starting day 7 (FIG. 5); for pulmonary fibrosis, summary statement: intra-tracheal administration to bleomycin-exposed mice
[2] = tested on: bleomycin-induced lung fibrosis; settings: background statement; cited from earlier work
rhACE = rhACE (Homo sapiens, UniProt P12821); settings: not told
Sequence of rhACE (P12821 30-1306): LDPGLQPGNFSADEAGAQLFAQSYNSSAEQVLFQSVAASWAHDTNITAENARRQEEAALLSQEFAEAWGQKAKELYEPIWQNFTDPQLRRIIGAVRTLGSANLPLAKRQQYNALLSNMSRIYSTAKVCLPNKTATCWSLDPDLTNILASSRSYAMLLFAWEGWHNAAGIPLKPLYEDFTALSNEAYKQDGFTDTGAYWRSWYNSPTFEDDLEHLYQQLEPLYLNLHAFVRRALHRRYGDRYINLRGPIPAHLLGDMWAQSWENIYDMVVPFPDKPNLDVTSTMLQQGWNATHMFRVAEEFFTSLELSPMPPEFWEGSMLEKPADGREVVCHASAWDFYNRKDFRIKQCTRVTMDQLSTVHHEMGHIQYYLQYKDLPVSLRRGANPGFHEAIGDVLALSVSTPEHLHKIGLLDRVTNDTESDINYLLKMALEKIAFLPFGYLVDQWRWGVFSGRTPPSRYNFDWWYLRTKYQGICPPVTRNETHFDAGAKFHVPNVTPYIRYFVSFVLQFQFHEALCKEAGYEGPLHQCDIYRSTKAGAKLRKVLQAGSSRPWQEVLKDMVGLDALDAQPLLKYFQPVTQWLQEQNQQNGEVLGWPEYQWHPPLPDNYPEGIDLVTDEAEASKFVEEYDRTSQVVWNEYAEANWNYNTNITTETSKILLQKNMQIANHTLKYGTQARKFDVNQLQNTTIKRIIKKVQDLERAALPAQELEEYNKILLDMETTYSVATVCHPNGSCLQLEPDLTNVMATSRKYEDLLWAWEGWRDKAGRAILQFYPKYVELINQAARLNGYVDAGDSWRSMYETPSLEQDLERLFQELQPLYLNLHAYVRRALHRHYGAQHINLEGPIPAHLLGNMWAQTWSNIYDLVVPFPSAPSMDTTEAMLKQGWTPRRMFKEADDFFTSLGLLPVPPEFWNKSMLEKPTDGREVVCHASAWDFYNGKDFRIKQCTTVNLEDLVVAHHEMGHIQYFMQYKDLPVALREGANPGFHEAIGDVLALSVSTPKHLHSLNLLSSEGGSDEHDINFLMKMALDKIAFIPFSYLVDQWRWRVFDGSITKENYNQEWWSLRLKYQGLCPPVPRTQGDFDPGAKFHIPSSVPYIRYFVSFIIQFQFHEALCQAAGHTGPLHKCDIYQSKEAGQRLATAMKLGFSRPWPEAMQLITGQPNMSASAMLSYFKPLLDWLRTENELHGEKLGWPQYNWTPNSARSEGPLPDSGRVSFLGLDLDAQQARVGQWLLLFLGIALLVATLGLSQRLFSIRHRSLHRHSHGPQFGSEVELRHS

IMR-90 fibroblasts = assay: Scratch wound migration of IMR-90 fibroblasts and TGF-β1-differentiated myofibroblasts; assay type: cell-based, human; settings: 100 μM Ac-PGP, 48 h
Protocol: FIGS. 11A-H show IMR-90 fibroblasts under different conditions. IMR-90 fibroblasts were grown to 80-90% confluence (A, C) and differentiated to myofibroblasts with TGF-β1 (E, G). A scratch was made and 100 μM Ac-PGP was added to some cells (FIGS. 11C, G).
(§1) The simplest explanation for this is a direct effect of Ac-PGP on the myofibroblast, altering its phenotype to stop or perhaps reverse fibrosis. […] Human lung fibroblasts were co-incubated with TGF-β and Ac-PGP and the effects on matrix generation and markers of MF activation and differentiation were observed.

[3] = tested on: IMR-90 fibroblasts differentiated to myofibroblasts; assay: Western blot of matrix and differentiation markers in IMR-90 myofibroblasts (TGF-β plus Ac-PGP); assay type: cell-based, human
Protocol: IMR-90 fibroblasts were differentiated to myofibroblasts with TGF-β 2.5 ng/ml. Ac-PGP at differing concentrations (0, 1, 3, 10 and 30 μg/ml) was added at the same time. Whole cell lysates were obtained after 48 h and probed by WB for the indicated proteins.
as §1

[4] = tested on: CXC receptors on neutrophils; settings: Haddox et al. 1999; cited from earlier work
[5] = TGF-β 2.5 ng/ml, Ac-PGP 1-30 μg/ml, 48 h, WB

Ac-PGP breakdown by rhACE (in words) (rhACE)	Compound	lung fibrosis measured as lung hydroxyproline, second trial [1]	lung fibrosis on histology (H&E), second trial [1]	pulmonary fibrosis, summary statement [1]	fibrosis in the bleomycin model [2]	migration of un-differentiated fibroblasts across the wound (IMR-90 fibroblasts)	migration of myofibroblasts across the wound (IMR-90 fibroblasts; TGF-β1-differentiated)	myofibroblast differentiation and pro-fibrotic functions in vitro, summary statement [3]	SRC phosphorylation [3, 5]	collagen expression [3, 5]	fibronectin expression [3, 5]	α-SMA expression [3, 5]	dose giving the greatest inhibition of myofibroblasts ([3]; lesser effects at 30 and 10 μg/ml)	effectiveness on lung fibrosis measured as lung hydroxyproline ([1]; 125 μg per day IT, days 7 to 21, n=8 (FIG. 4))	effectiveness at abrogating bleomycin-induced pulmonary fibrosis, second trial ([1]; 250 μg IT daily (FIG. 5))	lung fibrosis measured as lung hydroxyproline ([1]; 250 μg IT daily for two weeks starting day 7, n=8 (FIG. 4))	lung fibrosis on lung histology (H&E) ([1]; Ac-PGP 125 μg IT per day, days 7 to 21 after bleomycin (FIG. 3))	lung fibrosis on lung histology (H&E) ([1]; Ac-PGP 250 μg IT daily for two weeks starting day 7 after bleomycin, vs PBS-treated controls (FIG. 3))	potency relative to PGP [4]
–	O=C(NCC(=O)N1CCC[C@H]1C(=O)O)[C@@H]1CCCN1 [PGP, proline-glycine-proline] (H-Pro-Gly-Pro-OH; C-terminus assumed)	less effective	partially effective; also recorded: half as effective	partial effect	–	–	–	–	–	–	–	–	–	–	–	–	–	–	–
–	C[C@H](CS)C(=O)N1CCC[C@H]1C(=O)O [Captopril, reference compound]	–	–	–	reduces fibrosis	–	–	–	–	–	–	–	–	–	–	–	–	–	–
degraded	CC(=O)N1CCC[C@H]1C(=O)NCC(=O)N1CCC[C@H]1C(=O)O [Ac-PGP, N-acetyl-proline-glycine-proline] (Ac-Pro-Gly-Pro-OH; C-terminus assumed)	almost completely abrogates	abrogates	abrogated pulmonary fibrosis dose-dependently; also recorded: dramatic inhibition of fibrosis; also recorded: greatly reduces fibrosis	–	did not affect; also recorded: but not fibroblasts	markedly reduced; also recorded: inhibited migration	inhibited myofibroblast differentiation and pro-fibrotic functions	reduced	reduced	reduced	reduced	3 µg/mL	about 50%	~100%	almost completely abrogates	intermediate effect; also recorded: about half as effective	almost completely abrogates lung fibrosis; also recorded: almost completely abrogated	several times more potent
